Measured values as given in patent US20260109727A1, “RNA CONSTRUCTS AND USES THEREOF” (BioNTech SE, priority 2022, published 2026).

Test system: human primary hepatocytes
Experiment: EPO secretion in human primary hepatocytes transfected with TransIT-EPO mRNA (ELISA)
Assay type: cell-based
Procedure: To measure the translational efficiency of EPO mRNA capped with compound I′-1, compound I′-6, CC114, and CC413 in vitro, human primary hepatocytes were seeded into 96-well plates at a density of 2.5×10^4 cells per well and were transfected with mRNA samples (0.1 μg) complexed with TransIT reagent (Mirus Bio, Madison, WI, USA) in a final volume of 200 μL in InVitroGRO CP Medium (Sigma-Aldrich) supplemented with Thorpedo Antibiotic Mix (Sigma-Aldrich). To quantify EPO levels, the supernatant was collected at 1, 2, 3, 4, 5 and 6 day after transfection and EPO levels were analyzed by mouse Erythropoietin DuoSet ELISA kit (R&D Systems, Minneapolis, MN, USA) according to the manufacturer's instructions.
In each in vivo experiment in order to measure the translational efficiency and to determine the functionality of EPO mRNA capped with I′-1, I′-2, I′-3, I′-5, I′-6, I′-9, I′-12, I′-13, I′-16, CC114, and CC413 in vivo, female BALB/c mice from Jackson Laboratory (Bar Harbor, ME, USA) at the age of eight to ten weeks were used for in accordance with federal policies on animal research (Ethics approval number: G19-12-074). In each case, mice (n=3/group) were injected intravenously (i.v.) with 3 μg TransIT-complexed (Mirus Bio) EPO mRNAs in a final volume of 200 μL Dulbecco's modified Eagle medium (DMEM). Mice used as controls were injected with TransIT-reagent diluted in DMEM but without RNA. To measure hematocrits and EPO levels in the individual mice that were injected with EPO mRNA capped with I′-6, I′-1, CC114, and CC413 and complexed with TransIT-reagent, 18 μL of blood was collected at the indicated times (FIG. 8B) and centrifuged in Drummond microcaps glass capillary tubes (20 μl volume, Merck, Germany) as described (19). After determination of the hematocrit, capillary tubes were snapped open, and the plasma was collected to measure EPO levels and analyzed for mouse Erythropoietin DuoSet ELISA kit (R&D Systems) according to the manufacturer's instructions. […] EPO RNA containing m1Ψ modifications translated 2-3-fold, 5-fold, and 10-fold more than U-containing mRNAs at 6-24, 48 and 72 hours after injections, respectively. (FIG. 8A). […] To address translation of I′-6-capped mRNA in human primary hepatocytes, EPO level was measured from supernatants transfected using 0.1 μg/well TransIT-formulated I′-6- or CC114-capped uRNA (FIG. 13).
To test if various uridine (U) or pseudouridine (Ψ) derivatives of cap analogues can improve translation in human primary hepatocytes, we first measured EPO secretion after application of EPO-encoding Ψ-mRNA capped with compounds described herein analog bearing pseudouridine (I′-3) or CC413 (no modification). […] In addition, all tested modification bearing caps led to increase in EPO secretion at 24 h and 48 h when compared to the unmodified I′-1 (FIG. 16).

In the case of COC1C(OP(=O)(O)OC[C@H]2O[C@@H](c3cn(C)c(=O)[nH]c3=O)C(O)C2O)[C@@H](COP(=O)(O)OP(=O)([O-])OP(=O)(O)OC[C@H]2O[C@@H](n3c[n+](C)c4c(O)nc(N)nc43)C(O)C2OC)O[C@H]1n1cnc2c(N)ncnc21 (stereo partly shown) [I′-6, m^7G(^3′-OMe)pppA(2′-OMe)pm^1Ψ], the “translation (EPO secretion) compared to CC413” value (0.1 μg/well TransIT-EPO mRNA, 24 hrs) is reported as “higher translation”, the “EPO secretion, I′-6- vs CC114-capped uRNA” value (0.1 μg/well TransIT-formulated uRNA, 24 h, 48 h and 144 h) is reported as “Increased secretion of EPO” and the “level of secreted EPO compared to other caps (I′-9, I′-12, I′-16)” value (24 h) is reported as “increased level”. The “translation compared to CC413” value (m1Ψ-mRNA context) was “lower translation at later time points but in close to comparable translation”.
